Data on 20 compounds can be found in PubChem BioAssay AID256 (DTP/NCI, 2004).

The subject of this assay is CD2F1 mice, L1210 leukemia ip, survival T/C. Put plainly: NCI In Vivo Anticancer Drug Screen. Data for tumor model L1210 Leukemia (intraperitoneal) in CD2F1 (CDF1) mice. To be noted: higher = longer survival. Summed up: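 Each value reflects a quotient of treated over vehicle control outcomes in mice with a transplanted tumor.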
The mark [1] stands for this setting: endpoint: mean survival time, dose: 25.0 mg/kg/injection, schedule: Q04DX002 (ip), vehicle: saline with Tween-80.
Setting [2] is: endpoint: mean survival time, dose: 50.0 mg/kg/injection, schedule: Q04DX002 (ip), vehicle: saline with Tween-80.
[3] abbreviates: endpoint: mean survival time, dose: 100.0 mg/kg/injection, schedule: Q04DX002 (ip), vehicle: saline with Tween-80.
The mark [4] stands for this setting: endpoint: mean survival time, dose: 200.0 mg/kg/injection, schedule: Q04DX002 (ip), vehicle: saline with Tween-80.
[5] abbreviates: endpoint: mean survival time, dose: 100.0 mg/kg/injection, schedule: Q01DX001 (ip), vehicle: saline.
Where [6] appears, read: endpoint: mean survival time, dose: 200.0 mg/kg/injection, schedule: Q01DX001 (ip), vehicle: saline.

Each structure is given as a SMILES string. Several values for one entry are separate records, joined by “and”; a condition that tells them apart may be missing. Identical values can stand only once. Inconclusive results and toxic doses are left out.

For the compound `CC#CCOCC(O)CCl` (stereo unspecified), the T/C is, setting by setting: (endpoint: median survival time, dose: 50.0 mg/kg/injection, schedule: Q01DX005 (ip), vehicle: saline) 97 % of control; (endpoint: median survival time, dose: 50.0 mg/kg/injection, schedule: Q01DX005 (ip), vehicle: suspension in saline) 104 % of control; (endpoint: median survival time, dose: 100.0 mg/kg/injection, schedule: Q01DX005 (ip), vehicle: saline) 94 % of control; (endpoint: median survival time, dose: 100.0 mg/kg/injection, schedule: Q01DX005 (ip), vehicle: suspension in saline) 101 % of control; (endpoint: median survival time, dose: 200.0 mg/kg/injection, schedule: Q01DX005 (ip), vehicle: saline) 97 % of control; (endpoint: median survival time, dose: 200.0 mg/kg/injection, schedule: Q01DX005 (ip), vehicle: suspension in saline) 96 % of control. Where the note is “endpoint: median survival time, dose: 400.0 mg/kg/injection, schedule: Q01DX005 (ip), vehicle: saline”, the T/C is 117 % of control.

Turning to `CC1(C)CC(=O)C2=C(C1)OC1=C(C(=O)CC(C)(C)C1)C2c1ccccc1[N+](=O)[O-]`, the T/C was 100 % of control (endpoint: mean survival time, dose: 100.0 mg/kg/injection, schedule: Q01DX009 (ip), vehicle: saline with Tween-80); 95 % of control (endpoint: mean survival time, dose: 200.0 mg/kg/injection, schedule: Q01DX009 (ip), vehicle: saline with Tween-80); 94 % of control (endpoint: mean survival time, dose: 400.0 mg/kg/injection, schedule: Q01DX009 (ip), vehicle: saline with Tween-80).

As for `NC(=O)C1C=CN(Cc2ccccc2)C=C1`, the T/C is 100 % of control (endpoint: median survival time, dose: 30.0 mg/kg/injection, schedule: Q01DX005 (ip), vehicle: saline with Tween-80); 107 % of control (endpoint: median survival time, dose: 60.0 mg/kg/injection, schedule: Q01DX005 (ip), vehicle: saline with Tween-80); 111 % of control (endpoint: median survival time, dose: 120.0 mg/kg/injection, schedule: Q01DX005 (ip), vehicle: saline with Tween-80).

With `O=[N+]([O-])c1cc(Cl)cc2c1NP(=S)(c1ccccc1)N2` (stereo unspecified), the T/C was 91 % of control under setting [1], 102 % of control under setting [2], 91 % of control under setting [3] and 98 % of control under setting [4].

For `S=c1[nH]c2ccccc2[nH]c1=S`, the T/C is 103 % of control (endpoint: mean survival time, dose: 10.0 mg/kg/injection, schedule: Q01DX001 (ip), vehicle: Klucel (hydroxypropylcellulose) (HPC)) and 108 % of control (endpoint: mean survival time, dose: 20.0 mg/kg/injection, schedule: Q01DX001 (ip), vehicle: Klucel (hydroxypropylcellulose) (HPC)).

As for `COC(=O)c1csc(C2OC(CO)C(O)C2O)n1` (stereo unspecified), the T/C is 107 % of control (endpoint: mean survival time, dose: 25.0 mg/kg/injection, schedule: Q01DX005 (ip), vehicle: water); 103 % of control (endpoint: mean survival time, dose: 50.0 mg/kg/injection, schedule: Q01DX005 (ip), vehicle: water); 101 % of control (endpoint: mean survival time, dose: 100.0 mg/kg/injection, schedule: Q01DX005 (ip), vehicle: water); 101 % of control (endpoint: mean survival time, dose: 200.0 mg/kg/injection, schedule: Q01DX005 (ip), vehicle: water); 102 % of control (endpoint: mean survival time, dose: 400.0 mg/kg/injection, schedule: Q01DX005 (ip), vehicle: water).

With `CN(C)C(=O)OC1CCCC1[N+](C)(C)CCCCCCCC[N+](C)(C)C1CCCC1OC(=O)N(C)C` (stereo unspecified), the T/C reads like this: (endpoint: mean survival time, dose: 0.19 mg/kg/injection, schedule: Q01DX009 (ip), vehicle: saline) 104 % of control; (endpoint: mean survival time, dose: 0.31 mg/kg/injection, schedule: Q04DX003 (ip), vehicle: saline) 100 % of control; (endpoint: mean survival time, dose: 0.39 mg/kg/injection, schedule: Q01DX009 (ip), vehicle: saline) 104 % of control; (endpoint: mean survival time, dose: 0.62 mg/kg/injection, schedule: Q04DX003 (ip), vehicle: saline) 98 % of control; (endpoint: mean survival time, dose: 0.78 mg/kg/injection, schedule: Q01DX009 (ip), vehicle: saline) 98 % of control.

Take `CCC(=O)OC1=CC(=O)c2ccccc2C1=O`: the T/C by setting is: (endpoint: mean survival time, dose: 75.0 mg/kg/injection, schedule: Q01DX001 (ip), vehicle: saline) 101 % of control; (endpoint: mean survival time, dose: 150.0 mg/kg/injection, schedule: Q01DX001 (ip), vehicle: saline) 105 % of control.

Consider `CC(C)C/C=N/NC(=O)c1ccc[n+](C)c1`, for which the T/C is, setting by setting: (endpoint: mean survival time, dose: 50.0 mg/kg/injection, schedule: Q01DX001 (ip), vehicle: saline) 107 % of control; under setting [5], 109 % of control; under setting [6], 103 % of control.

Regarding `NNC(=O)Sc1ccccc1`, the T/C by setting is: under setting [5], 107 % of control; under setting [6], 111 % of control; (endpoint: mean survival time, dose: 400.0 mg/kg/injection, schedule: Q01DX001 (ip), vehicle: saline) 102 % of control.

For `CNCCNC1=C(Cl)C(=O)c2ccccc2C1=O`, the T/C (endpoint: mean survival time, dose: 6.25 mg/kg/injection, schedule: Q04DX003 (ip), vehicle: saline with Tween-80) is 101 % of control; the T/C (endpoint: mean survival time, dose: 12.5 mg/kg/injection, schedule: Q04DX003 (ip), vehicle: saline with Tween-80) was 101 % of control; the T/C (endpoint: mean survival time, dose: 25.0 mg/kg/injection, schedule: Q04DX003 (ip), vehicle: saline with Tween-80) was 96 % of control and 102 % of control.

For `C#CCOCCBr`, the T/C runs as follows: (endpoint: mean survival time, dose: 50.0 mg/kg/injection, schedule: Q01DX009 (ip), vehicle: acetone) 94 % of control; (endpoint: mean survival time, dose: 100.0 mg/kg/injection, schedule: Q01DX009 (ip), vehicle: acetone) 100 % of control; (endpoint: mean survival time, dose: 200.0 mg/kg/injection, schedule: Q01DX009 (ip), vehicle: acetone) 103 % of control.

Consider `O=C(c1ccccc1)c1cc(-c2ccccc2)nc2ccccc2c2ccccc2[nH]1`, for which the T/C reads like this: (endpoint: mean survival time, dose: 100.0 mg/kg/injection, schedule: Q01DX001 (ip), vehicle: Klucel (hydroxypropylcellulose) (HPC)) 93 % of control; (endpoint: mean survival time, dose: 200.0 mg/kg/injection, schedule: Q01DX001 (ip), vehicle: Klucel (hydroxypropylcellulose) (HPC)) 91 % of control; (endpoint: mean survival time, dose: 400.0 mg/kg/injection, schedule: Q01DX001 (ip), vehicle: Klucel (hydroxypropylcellulose) (HPC)) 100 % of control.

Take `Nc1csc(N)n1`: the T/C (endpoint: mean survival time, dose: 37.5 mg/kg/injection, schedule: Q01DX009 (ip), vehicle: saline) was 98 % of control; the T/C (endpoint: mean survival time, dose: 75.0 mg/kg/injection, schedule: Q01DX009 (ip), vehicle: saline) is 98 % of control; the T/C (endpoint: mean survival time, dose: 150.0 mg/kg/injection, schedule: Q01DX009 (ip), vehicle: saline) was 98 % of control.

For the compound `O=C(/C=C\c1ccc(/C=C/C(=O)Nc2cccc(C3=NCCCN3)c2)cc1)Nc1cccc(C2=NCCCN2)c1`, the T/C is, setting by setting: (endpoint: median survival time, dose: 5.0 mg/kg/injection, schedule: Q01DX009 (ip), vehicle: Klucel (hydroxypropylcellulose) (HPC)) 175 % of control and 196 % of control; (endpoint: median survival time, dose: 10.0 mg/kg/injection, schedule: Q01DX009 (ip), vehicle: Klucel (hydroxypropylcellulose) (HPC)) 185 % of control and 250 % of control; (endpoint: median survival time, dose: 20.0 mg/kg/injection, schedule: Q01DX009 (ip), vehicle: Klucel (hydroxypropylcellulose) (HPC)) 113 % of control.

Turning to `C/C=C(\Br)C(=O)O`, the T/C reads like this: under setting [1], 101 % of control; under setting [2], 101 % of control; under setting [3], 104 % of control.

With `CCCC[PH+](CCCC)CCCC.CCCC[PH+](CCCC)CCCC.O=[N+]([O-])O.O=[N+]([O-])O.[Ni]`, the T/C under setting [2] is 92 % of control.

For `O=[N+]([O-])c1cc(-c2nnc(-c3ccc(Cl)c([N+](=O)[O-])c3)o2)ccc1Cl`, the T/C by setting is: under setting [2], 100 % of control; under setting [3], 100 % of control; under setting [4], 96 % of control; (endpoint: mean survival time, dose: 400.0 mg/kg/injection, schedule: Q04DX002 (ip), vehicle: saline with Tween-80) 100 % of control.

As to `OC1COC(c2cnn(-c3ccccc3)n2)C1O` (stereo unspecified), the T/C (endpoint: median survival time, dose: 12.5 mg/kg/injection, schedule: Q01DX005 (ip), vehicle: water) was 105 % of control and 110 % of control; the T/C (endpoint: median survival time, dose: 25.0 mg/kg/injection, schedule: Q01DX005 (ip), vehicle: water) was 103 % of control; the T/C (endpoint: median survival time, dose: 50.0 mg/kg/injection, schedule: Q01DX005 (ip), vehicle: water) is 105 % of control and 103 % of control; the T/C (endpoint: median survival time, dose: 100.0 mg/kg/injection, schedule: Q01DX005 (ip), vehicle: water) is 103 % of control and 104 % of control; the T/C (endpoint: median survival time, dose: 200.0 mg/kg/injection, schedule: Q01DX005 (ip), vehicle: water) was 100 % of control and 103 % of control; the T/C (endpoint: median survival time, dose: 400.0 mg/kg/injection, schedule: Q01DX005 (ip), vehicle: water) was 107 % of control.

Turning to `COc1cccc2c1C(=O)c1c(O)c3c(c(O)c1C2=O)C[C@@](O)(C(=O)CN1CCN(C)CC1)C[C@@H]3OC1CC(N)C(O)C(C)O1` (stereo partly specified), the T/C is, setting by setting: (endpoint: mean survival time, dose: 6.25 mg/kg/injection, schedule: Q04DX003 (ip), vehicle: water) 88 % of control; (endpoint: mean survival time, dose: 12.5 mg/kg/injection, schedule: Q04DX003 (ip), vehicle: water) 90 % of control; (endpoint: mean survival time, dose: 25.0 mg/kg/injection, schedule: Q04DX003 (ip), vehicle: water) 90 % of control; (endpoint: mean survival time, dose: 50.0 mg/kg/injection, schedule: Q04DX003 (ip), vehicle: water) 91 % of control; (endpoint: mean survival time, dose: 100.0 mg/kg/injection, schedule: Q04DX003 (ip), vehicle: water) 86 % of control.
